Earlier results, collected in patent US12336538B2, “Method for controlling rats and mice with cholecalciferol baits” (priority 2014, dated 2025).

Columns and labels:
[1] = tested on: rat population
[2] = tested on: bait shyness; settings: Gould and Holmes, Pest Manag. Sci. 2008

## C=C1CC[C@H](O)C/C1=C/C=C1\CCC[C@]2(C)[C@@H]([C@H](C)CCCC(C)C)CC[C@@H]12 [cholecalciferol, Cholecalciferol]
[1]; 0.1% cholecalciferol alone, only one day of feeding, Posipischil and Schnorbach 1994
  suitability to control a rat population: not suitable to control a rat population
[1]; cholecalciferol alone, Kocher and Navjot 2013
  suitability to control rat population: not suitable to control rat population

## COc1ccc2c(c1)[C@]13CCCC[C@@H]1[C@H](C2)N(C)CC3 [dextromethorphan]
[2]
  prevention of bait shyness to cholecalciferol: ineffective
